Source: patent US20070072917A1, “Substituted 2-aminotetralin for the treatment of depression” (SRZ Properties, Inc., priority 2003, published 2007)
“Also recorded” adds a separate entry of the source.

Key:
[1] = tested on: rats; test: forced swim test; assay type: in vivo; conditions: repeated swim test, subcutaneously applied
Description: The “forced swim test” is an animal model in which depressive episodes are triggered by acute stress. In this test, rats are forced to swim in a limited space. After initial attempts to save themselves, in which the animals realise the hopelessness of the situation, they lapse into immobility. On repetition of the experiment, the animals remain immobile from the start of the experiment. If the animals are pre-treated with antidepressants, the period of immobility in the repeated test is shortened and the animals generally commence search and escape movements immediately after transfer into the water basin (Porsolt, Biomedicine 30, 1979, 139).

[2] = tested on: rats; test: learned helplessness test; assay type: in vivo; conditions: several days of administration, low concentrations / depending on the dose, vs vehicle control (HC)
Description: In the “learned helplessness test”, rats are repeatedly subjected to uncontrollable stress. This brings about an impaired learning ability in the animals in a later situation (for example after 48 hours) in which they could escape the stress again. Following the sub-chronic but not acute administration of antidepressants, the learning ability normalises again and the animals learn to escape the (announced) stress (in time) (Sherman, Pharmacology Biochemistry & Behavior 16, 1982, 449).

[3] = tested on: bulbectomised rats; test: bulbectomy study (olfactory bulbs removed on both sides); assay type: in vivo, Sprague-Dawley rats; conditions: low doses, 3 minutes on test field
Description: In a further animal model (embodiment 3), it was examined whether the antidepressive effects of rotigotine can be distinguished from a general motor stimulation. In this case, rotigotine was administered to rats whose olfactory bulbs had been removed on both sides. The removal of the olfactory bulb leads to an adaptive hyperactivity in the untreated control group. It is known from literature that chronically administered antidepressants lead to a reduction in the movement activity of the animals in this model, whereas stimulants further increase the motor activity (van Riezen H et al, Br J. Pharmacol. 60(4), 1977, 521; Kelly J P et al, Pharmacol Ther. 74(3), 1997, 299). Therefore, it is possible to discriminate between antidepressive and non-specific stimulatory effects of an active ingredient with this model. […] The bulbectomy study was carried out on Sprague-Dawley rats. A sham-operated group, which was operated on without removal of the olfactory bulbs, served as a control group. 14 days after the operation, the rats were treated with vehicle, a rotigotine depot suspension (every second day) or imipramine. On test days, the rats were placed onto a test field and left to themselves for 3 minutes. The locomotor activities of the animals were thereby measured on the basis of the number of lines crossed.

CCCN(CCc1cccs1)C1CCc2c(O)cccc2C1 (single isomer, unassigned; (-)) [rotigotine, (−)-5,6,7,8-tetrahydro-6-[propyl[2-(2-thienyl)ethyl]amino]-1-naphthol]
period of immobility [1]: significant antidepressive effect; also recorded: clear reduction in the period of immobility | period of immobility ([1]; listed as Rotigotine): significantly shortened period of immobility | learning behaviour [2]: significant antidepressive effect | bulbectomy-induced locomotor hyperactivity (number of lines crossed) [3]: almost complete suppression of the bulbectomy-induced locomotor hyperactivity; also recorded: significant antidepressive effect; also recorded: significantly reduce motor hyperactivity
